Data from patent publication US5863913A, “Aromatic compound and pharmaceutical composition” (Kureha Chemical Industry Co., Ltd., priority 1996, dated 1999).

Legend:
[1] = molecular target: T1, angiotensin II receptor subtype 1 (AT1) (Oryctolagus cuniculus, UniProt P34976); assay: Binding to receptors: angiotensin II receptor subtype 1 (AT1); parameters: species or system rabbits (adrenal glands); details: rabbit adrenal glands, tracer 3H-angiotensin II
T1 construct: receptor : from adrenal glands in rabbits; from tissue; host or cells: rabbit adrenal glands
T1 sequence (P34976 1-359): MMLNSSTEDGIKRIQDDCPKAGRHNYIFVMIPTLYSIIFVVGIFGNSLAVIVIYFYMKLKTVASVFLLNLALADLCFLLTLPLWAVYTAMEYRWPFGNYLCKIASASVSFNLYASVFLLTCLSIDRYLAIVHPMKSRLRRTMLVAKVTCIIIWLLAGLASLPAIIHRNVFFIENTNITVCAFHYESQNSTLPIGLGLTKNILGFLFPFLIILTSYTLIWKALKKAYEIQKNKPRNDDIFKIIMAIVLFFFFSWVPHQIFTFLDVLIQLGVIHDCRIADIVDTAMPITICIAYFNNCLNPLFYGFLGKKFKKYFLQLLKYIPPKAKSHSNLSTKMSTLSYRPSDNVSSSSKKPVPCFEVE
Method: In this Example, the affinity to the angiotensin II receptor subtype 1 or subtype 2 was evaluated by a binding assay in accordance with the method described in Biochem. Pharmacol., 33, 4057-4062 (1984).
Specifically, the measurement of the total binding in the presence of each drug was performed as follows:
A mixture (final volume=0.25 ml) of a drug in a given concentration (the drug was dissolved in DMSO, and diluted to a double volume with a buffer attached to a drug discovery system to prepare a sample for the assay; 0.025 ml), a tracer (0.025 ml), and receptors (0.2 ml) was incubated [in the case of the angiotensin II receptor subtype 1 (AT1), at room temperature for 3 hours, and in the case of the subtype 2 (AT2), at 37° C. for 1 hour]. Then, the reaction mixture was filtered with suction (GF/C filter was used in AT1, and GF/B filter was used in AT2). The filter papers after filtration with suction (the tracer bound to the receptors) were counted by a γ-well counter (ARC-500, Aloka). The non-specific bindings were measured by repeating the above method, except that a large excess amount of a displacer was added. The specific binding of the drug in the given concentration was calculated by subtracting the non-specific binding from the total binding, respectively.
receptor : from adrenal glands in rabbits
tracer : ^3 Hangiotensin II

[2] = test system: kidney disease model rats; assay: Renal function indicatory value in kidney disease model rats; type: in vivo, Sprague-Dawley female rats; details: 20 mg/kg/day with drinking water, six weeks
Method: (§1) The kidney disease model rats were prepared by a ligature of branches of renal artery in accordance with a conventional method. Namely, the left hilum renalis of Sprague-Dawley female rats was exposed under anesthesia, and one of four secondary branches of the renal artery was left unligated, while the remaining three branches were ligated, respectively. After a week, the hilum renalis (artery, vein, and ureter) of the right kidney were further ligated to thereby prepare rats whose renal function was lowered to approximately 1/8 of the normal function. Each group consisted of eight rats. The drugs to be tested (20 mg/kg) were administered to each administering group, and only water was administered to a control group. Two days after the administration, the systolic blood pressure was measured by the tail cuff method using a blood pressure measuring apparatus (UR5000; Ueda).
The rats in each group were allowed to freely take up food. […] To the rats in the control group, only water was administered every day. After six weeks, 0.2 ml of blood was collected from the carotid artery of the rats under anesthesia, and centrifuged to obtain serum. Using 25 μl of the serum, the serum creatinine (Scr) was measured by a creatinine analytical instrument (Beckman). Using 10 μl of the serum, the blood urea nitrogen (BUN) was measured by a BUN analytical instrument (Beckman). The creatinine clearance was evaluated as follows:
After the serum creatinine measurement, rats were placed in urinary metabolic cages for 24 hours to collect urine. A urinary creatine concentration (Ucr) was measured by a creatinine analytical instrument, and a total volume of urination (Uvol) was also measured. The creatinine clearance (CCr) was calculated by the following formula: [formula]

[3] = test system: ICR female mice; assay: Acute toxicity, single oral dose in mice; details: mouse, in vivo
Method: The aromatic compounds of the formula (I) according to the present invention were orally administered to mice at the dose of 500 mg/kg, but no fatalities were observed over a period of one week.
Five-week-old ICR female mice (5 mice per group) were bred for acclimation for a week. Then, the compounds of the present invention were dissolved in water, and orally administered to the mice in a single dosage (500 mg/kg).

[4] = test system: kidney disease model rats; assay: Action to lower blood pressure in kidney disease model rats (tail cuff); type: in vivo, Sprague-Dawley female rats; details: systolic, average of 8 rats, 20 mg/kg with drinking water, two days after administration; control 210
Method: as §1, with “The compounds of the present invention and the reference substance were administered with drinking water to kidney disease model rats, and the action of lowering the blood pressure was observed. The kidney” for “The kidney”

[5] = test system: kidney disease model rats; assay: Survival time of kidney diseased animals; type: in vivo, Sprague-Dawley female rats; details: 20 mg/kg/day with drinking water, observation period eight weeks (upper limit); control 5.0
Method: as §1, with “The compounds of the present invention and the reference substance were administered with drinking water to kidney disease model rats, and the action of lowering the blood pressure was observed. The kidney” for “The kidney”
The kidney disease model rats were prepared as in Example 54. Twenty-two groups (8 rats per group) were prepared in a manner such that there was no major difference between the groups in the serum creatinine value and the blood urea nitrogen value indicating renal function. The rats in each group were allowed to freely take up food. […] To the rats in the control group, only water was administered every day. If kidney diseases are aggravated, the rat will die of uremia. Thus, the survival time was observed as a comprehensive indication of the improvement of the effect on the kidney diseases. The observation period was eight weeks. Thus if all rats survived, the average survival time is eight weeks, and is an upper limit.

[6] = Oral absorption (amount of compound in rat serum by HPLC, area under curve); type: in vivo, Sprague-Dawley female rats; details: single dosage 160 mg/kg in water, 0.5 to 24 hours, average of 3 rats
Method: Twelve-week-old Sprague-Dawley female rats (3 rats per group) were bred for acclimation for a week. Then, the compounds of the present invention and a reference substrate were dissolved in water, and orally administered to the rats in a single dosage (160 mg/kg). After 0.5 hour, 1 hour, 2 hours, 4 hours, 6 hours, 8 hours, and 24 hours, the amounts of each compound (ng) per 1 ml of serum were measured using HPLC. Curves were obtained from the relation between an elapsed time after administration and the amount of the compound in serum at each elapsed time, respectively, and an average of the areas under the curves was calculated.
As a reference substance, Compound No. 184 disclosed in Japanese Unexamined Patent Publication (Kokai) No. 8-48651 was used. Compound No. 184 corresponds to the compound of the formula (I) wherein R^1 =nBu, A=N, Z=C, R^2 =CO, R^3 =NC4 H8 O, R^4 =H, R^5 =Me, and R^6 =Me.

`CCCCC(=O)N(Cc1ccc(C(=O)O)cc1)c1cc(C(=O)N2CCN(CCC)CC2)ccc1N(C)C` [Compound No. 11, 4-dimethylamino-3-N-[[(4-carboxyphenyl)methyl]valeramido]benzoic acid 4'-n-propylpiperazide] showed an inhibition at 100 µM [1] of 0%, a Creatinine clearance ([2]; 24 hours urine, control 0.22) of 0.42 mL/min and a Creatinine ([2]; serum, control 2.0) of 1.2 mg/dL. For the same compound, the Blood urea nitrogen ([2]; serum, control 100) was 62 mg/dL, the “Number of deaths/number of survivals” value [3] was 0/5 and the “Blood Pressure” value [4] was 204 mmHg. The Average survival time [5] was 7.3 weeks and the AUC at 24 h [6] was 76 µg·h/mL.
